# Legend:
# [1] = tested on: P388/VCR (murine leukaemia resistant to vincristine); assay: Increase in the anti-tumour activity of vincristine in vivo, compounds administered p.o.; parameters: species or system mice (female B6D2F1); conditions: 100 mg/kg p.o., days 1, 2, 3 and 4; + vincristine 0.25 mg/kg i.p.
# Excerpt: (§1) The sensitive parent line P388 (murine leukaemia) and the sub-line resistant to vincristine, P388/VCR, were supplied by NCI (Frederick, USA). The tumour cells (10^6 cells) were inoculated on day 0 into the intraperitoneal cavity of female B6D2F1 mice (Iffa Credo, France) weighing from 18 to 20 g (groups of 8 to 10 animals). In the case of i.p. administration of the compounds to be tested, the animals received on days 1, 5 and 9:
# In the case of p.o. administration of the compounds to be tested, the animals received on days 1, 2, 3 and 4:
# an administration by the oral route of 100 mg/kg of the compound of the present invention to be tested, then
# 30 to 60 minutes later, an administration by the i.p. route of 0.25 mg/kg of vincristine.
# The anti-tumour activity is expressed as follows: [formula]
# The activity of the reversing compound is expressed as T/V: [formula]
# [2] = tested on: P388/VCR (murine leukaemia resistant to vincristine); assay: Increase in the anti-tumour activity of vincristine in vivo, compounds administered i.p.; parameters: species or system mice (female B6D2F1); conditions: for increase in anti-tumour activity of vincristine (in words): administered i.p., resistant tumour
# Protocol: as §1, with “9: administration by the i.p. route of 25, 50 or 75 mg/kg of the compound of the present invention to be tested, then 30 to 60 minutes later, an administration by the i.p. route of 0.50 mg/kg of vincristine (used as a reference anti-tumour agent). The anti-tumour activity is expressed as follows: [formula] The activity of the reversing compound is expressed as T/V: [formula]” for “9:”
# [3] = tested on: DC-3F/AD cells; assay: Cytotoxicity of actinomycin D, reversal of MDR (reversion factor), Microculture Tetrazolium Assay; format: cell-based, Chinese hamster; conditions: compound at 5 μM, with actinomycin D, 4 days
# Protocol: Two resistant cell lines were used:
# The cells are distributed on microplates and exposed to the cytotoxic compound (actinomycin D or adriamycin) at 9 concentrations (2 by 2 series dilutions). The compounds tested for their capacity to reverse MDR are added at the same time as the cytotoxic agent. The cells are then incubated for 4 days. […] The results are expressed as a reversion factor (RF): [formula]
# [4] = 25 mg/kg i.p., days 1, 5 and 9, + vincristine 0.50 mg/kg i.p.
# [5] = 50 mg/kg i.p., days 1, 5 and 9, + vincristine 0.50 mg/kg i.p.
# [6] = 75 mg/kg i.p., days 1, 5 and 9, + vincristine 0.50 mg/kg i.p.
# [7] = VCR only, 0.50 mg/kg i.p., no compound
smiles,measurement,setting,value
"C=CCNc1nc(N2CCC(NCC3c4ccccc4C=Cc4ccccc43)CC2)nc2c1ncn2CC=C [Example 6, 9-allyl-6-allylamino-2-{4-[(5H-dibenzo[a,d]cyclohepten-5-yl)methylamino]piperidino}purine]",T/C,[1],188
"C=CCNc1nc(N2CCC(NCC(c3ccccc3)c3ccccc3)CC2)nc2c1ncn2CC=C [Example 12, 9-allyl-6-allylamino-2-{4-[(2,2-diphenylethyl)amino]piperidino}purine]",T/C,[1],192
"C=CCNc1nc(N2CCC(NCC(c3ccc(F)cc3)c3ccc(F)cc3)CC2)nc2c1ncn2CC=C [Example 3, 9-allyl-6-allylamino-2-{4-[2,2-bis(4-fluorophenyl)-ethylamino]piperidino}purine]",T/C,[1],203
"C=CCNc1nc(N2CCC(NCC3c4ccccc4CCc4ccccc43)CC2)nc2c1ncn2CC=C [Example 1, 9-allyl-6-allylamino-2-{4-[(10,11-dihydro-5H-dibenzo-[a,d]cyclohepten-5-yl)methylamino]piperidino}purine]",T/C %,[2]; [4],215%
same,T/V,[2]; [4],1.54
same,T/C %,[2]; [5],239%
same,T/V,[2]; [5],1.71
same,T/C %,[2]; [6],176%
same,T/V,[2]; [6],1.26
same,increase in anti-tumour activity of vincristine (in words),[2],substantially increase the anti-tumour activity of vincristine against a resistant tumour
same,T/C,[1],209
same,REVERSION FACTOR 5 μM DC-3F/AD,[3],5173
"C=CCNc1nc(N2CCC(NC3c4ccccc4N(C)S(=O)(=O)c4cc(Cl)ccc43)CC2)nc2c1ncn2CC=C (single isomer, unassigned) [Example 15, (+)--(R)-- or --(S)-9-allyl-6-allylamino-2-{4-[(3-chloro-6-methyl-5,5-dioxo-6,11-dihydrodibenzo[c,f][1,2]thiazepin-11-yl)amino]piperidino)purine]",T/C,[1],157
"CC[C@]1(O)C[C@H]2CN(CCc3c([nH]c4ccccc34)[C@@](C(=O)OC)(c3cc4c(cc3OC)N(C=O)[C@H]3[C@@](O)(C(=O)OC)[C@H](OC(C)=O)[C@]5(CC)C=CCN6CC[C@]43[C@@H]65)C2)C1 [VCR, vincristine, reference compound]",T/C %,[2]; [7],140%
same,T/V,[2]; [7],1
"C=CCNc1nc(N2CCC(NCC3c4ccccc4CCc4ccccc43)CC2)nc2c1cnn2CC=C [Example 9, 1-allyl-4-allylamino-6-{4-[(10,11-dihydro-5H-dibenzo[a,d]cyclohepten-5-yl)methylamino]piperidino}pyrazolo[3,4-d]pyrimidine]",T/C,[1],161
"COc1ccc(CCN(C)CCCC(C#N)(c2ccc(OC)c(OC)c2)C(C)C)cc1OC (stereo not shown) [verapamil, reference compound]",REVERSION FACTOR 5 μM DC-3F/AD,[3],3
"C=CCNc1nc(N2CCC(NCC3c4ccccc4CCc4cc(OC)ccc43)CC2)nc2c1ncn2CC=C (stereo not shown) [Example 14, 9-allyl-6-allylamino-2-{4-[(2-methoxy-10,11-dihydro-5H-dibenzo[a,d]cyclohepten-5-yl)methylamino]piperidino}purine]",T/C,[1],202
"C=CCNc1nc(N2CCC(NCC3c4ccccc4COc4ccccc43)CC2)nc2c1ncn2CC=C (stereo not shown) [Example 5, 9-allyl-6-allylamino-2-{4-[(6,11-dihydrodibenzo[b,e]-oxepin-11-yl)methylamino]piperidino}purine]",T/C,[1],196
"C=CCNc1nc(N2CCC(NCC3c4ccccc4CCc4ccccc43)CC2)c2ncn(CC=C)c2n1 [Example 2, 9-allyl-2-allylamino-6-{4-[(10,11-dihydro-5H-dibenzo-[a,d]cyclohepten-5-yl)methylamino]piperidino}purine]",T/C %,[2]; [4],192%
same,T/V,[2]; [4],1.37
same,T/C %,[2]; [5],224%
same,T/V,[2]; [5],1.60
same,T/C %,[2]; [6],235%
same,T/V,[2]; [6],1.68
same,increase in anti-tumour activity of vincristine (in words),[2],substantially increase the anti-tumour activity of vincristine against a resistant tumour
same,T/C,[1],172
same,REVERSION FACTOR 5 μM DC-3F/AD,[3],3368

# Source: patent US5508277A, “Bicyclic pyrimidines” (Adir Et Compagnie, priority 1992, dated 1996)
